target: human PAD4 (hPAD4) (Homo sapiens (Human), UniProt Q9UM07); assay: RFMS Human PAD4 Functional Assay 1; format: biochemical; settings: RFMS assay 1; 5 nM hPAD4, 250 μM BAEE substrate, 50 μM calcium, 37° C.
Method in brief: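 Recombinant hPAD4 (5 nM) was preincubated with compound (top 50 μM, 0.5% DMSO) for 30 min at 37 °C, then reacted with 250 μM BAEE for 90 min at 37 °C in pH 7.5 HEPES buffer with 50 μM calcium and 5 μM TPEN. Product was derivatized with phenyl glyoxal and quantified by RapidFire MS.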

Sequence of human PAD4 (hPAD4) (Q9UM07 whole entry): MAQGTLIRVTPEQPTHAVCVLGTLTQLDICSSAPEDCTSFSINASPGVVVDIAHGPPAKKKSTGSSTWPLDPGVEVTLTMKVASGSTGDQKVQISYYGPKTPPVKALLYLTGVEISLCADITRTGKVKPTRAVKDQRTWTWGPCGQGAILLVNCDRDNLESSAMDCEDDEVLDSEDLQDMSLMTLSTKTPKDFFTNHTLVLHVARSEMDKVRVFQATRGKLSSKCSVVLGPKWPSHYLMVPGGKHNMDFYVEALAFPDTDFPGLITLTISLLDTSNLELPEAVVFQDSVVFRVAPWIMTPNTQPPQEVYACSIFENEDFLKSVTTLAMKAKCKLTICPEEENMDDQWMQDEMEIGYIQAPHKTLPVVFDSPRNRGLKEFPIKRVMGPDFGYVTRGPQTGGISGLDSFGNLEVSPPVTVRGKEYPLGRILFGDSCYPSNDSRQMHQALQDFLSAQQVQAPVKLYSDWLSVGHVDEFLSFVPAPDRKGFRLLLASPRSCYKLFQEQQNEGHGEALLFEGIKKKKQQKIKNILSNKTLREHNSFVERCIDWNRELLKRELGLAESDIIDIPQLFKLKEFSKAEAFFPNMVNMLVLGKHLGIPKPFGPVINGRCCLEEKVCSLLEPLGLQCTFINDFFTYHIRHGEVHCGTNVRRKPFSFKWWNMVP

SMILES	IC50
CO[C@@H](C)C(=O)N1CCC(c2cccc3cc(-c4nn5cc(C(=O)N6C[C@H](N)C[C@@H](F)C6)ccc5c4C)n(CC4CC4)c23)CC1 [Example 459, (S)-1-(4-(2-(6-((3R,5R)-3-amino-5-fluoropiperidine-1-carbonyl)-3-methylpyrazolo[1,5-a]pyridin-2-yl)-1-(cyclopropylmethyl)-1H-indol-7-yl)piperidin-1-yl)-2-methoxypropan-1-one]	140 nM
Cc1c(-c2cc3cccc(C4CCN(C(=O)c5cccs5)CC4)c3n2CC2CC2)nn2cc(C(=O)N3CCC[C@@H](N)C3)ccc12 [Example 464, (R)-(3-aminopiperidin-1-yl)(2-(1-(cyclopropylmethyl)-7-(1-(thiophene-2-carbonyl)piperidin-4-yl)-1H-indol-2-yl)-3-methylpyrazolo[1,5-a]pyridin-6-yl)methanone]	180 nM
COC(=O)N1CCC(c2cccc3cc(-c4nn5cc(C(=O)N6CCC[C@@H](N)C6)ccc5c4C)n(CC4CC4)c23)CC1 [Example 468, Methyl (R)-4-(2-(6-(3-aminopiperidine-1-carbonyl)-3-methylpyrazolo[1,5-a]pyridin-2-yl)-1-(cyclopropylmethyl)-1H-indol-7-yl)piperidine-1-carboxylate]	100 nM
COC(=O)N1CCC(c2cccc3cc(-c4nn5cc(C(=O)N6C[C@H](N)C[C@@H](F)C6)ccc5c4C)n(CC4CC4)c23)CC1 [Example 469, Methyl 4-(2-(6-((3R,5R)-3-amino-5-fluoropiperidine-1-carbonyl)-3-methylpyrazolo[1,5-a]pyridin-2-yl)-1-(cyclopropylmethyl)-1H-indol-7-yl)piperidine-1-carboxylate]	180 nM
Cc1c(-c2cc3cccc(C4CCN(C(=O)[C@@H](C)O)CC4)c3n2CC2CC2)nn2cc(C(=O)N3CCC[C@@H](N)C3)ccc12 [Example 471, (R)-1-(4-(2-(6-((R)-3-aminopiperidine-1-carbonyl)-3-methylpyrazolo[1,5-a]pyridin-2-yl)-1-(cyclopropylmethyl)-1H-indol-7-yl)piperidin-1-yl)-2-hydroxypropan-1-one]	90 nM

Stronger by IC50, values ahead:

IC50	SMILES
80 nM	CO[C@H](C)C(=O)N1CCC(c2cccc3cc(-c4nn5cc(C(=O)N6C[C@H](N)C[C@@H](F)C6)ccc5c4C)n(CC4CC4)c23)CC1 [Example 461, (R)-1-(4-(2-(6-((3R,5R)-3-amino-5-fluoropiperidine-1-carbonyl)-3-methylpyrazolo[1,5-a]pyridin-2-yl)-1-(cyclopropylmethyl)-1H-indol-7-yl)piperidin-1-yl)-2-methoxypropan-1-one]
70 nM	CO[C@H](C)C(=O)N1CCC(c2cccc3cc(-c4nn5cc(C(=O)N6CCC[C@@H](N)C6)ccc5c4C)n(CC4CC4)c23)CC1 [Example 460, (R)-1-(4-(2-(6-((R)-3-aminopiperidine-1-carbonyl)-3-methylpyrazolo[1,5-a]pyridin-2-yl)-1-(cyclopropylmethyl)-1H-indol-7-yl)piperidin-1-yl)-2-methoxypropan-1-one]
60 nM	Cc1c(-c2cc3cccc(C4CCN(C(=O)[C@@H](C)O)CC4)c3n2CC2CC2)nn2cc(C(=O)N3C[C@H](N)C[C@@H](F)C3)ccc12 [Example 472, (R)-1-(4-(2-(6-((3R,5R)-3-amino-5-fluoropiperidine-1-carbonyl)-3-methylpyrazolo[1,5-a]pyridin-2-yl)-1-(cyclopropylmethyl)-1H-indol-7-yl)piperidin-1-yl)-2-hydroxypropan-1-one]
10 nM	COC(=O)N1CCC(c2cccc3cc(-c4nn5cc(C(=O)N6CC7CCC6[C@@H]7N)ccc5c4C)n(CC4CC4)c23)CC1 (stereo partly drawn) [Example 470, Methyl 4-(2-(6-((7R)-7-amino-2-azabicyclo[2.2.1]heptane-2-carbonyl)-3-methylpyrazolo[1,5-a]pyridin-2-yl)-1-(cyclopropylmethyl)-1H-indol-7-yl)piperidine-1-carboxylate]

Source: patent US12473304B2, “Heterocyclic PAD4 inhibitors” (BRISTOL-MYERS SQUIBB COMPANY, priority 2020, dated 2025)
